Data as given in patent publication US20060052307A1, “Bone growth factor” (priority 2002, published 2006).
Several values for one entry are separate records, joined by “and”; a condition that tells them apart may be missing. Equal entries are not always repeated. Bridges are numbered along the chain shown (N, C = ends). Roman numbers before positions name the chains, in order. The star is where a group is joined. Cam = NC(=O)C*

Columns and labels:
Sprague-Dawley rats [1] = experiment: Bone mineral apposition rate after a single subcutaneous peptide injection, double tetracycline labelling, distal metaphysis of the right femur; type: in vivo, rat; set-up: Bone mineral apposition rate, group mean (Table 2): unit not given here; conditions: male rats; for BONE MINERAL APPOSITION, individual rats (Table 6) / Effect on bone mineral apposition / BONE MINERAL APPOSITION, MEAN (Table 6): Example 3, 300 nmoles/kg S.C.; for BONE MINERAL APPOSITION, MEAN (Table 6): control 1.62; for Effect on bone mineral apposition rate versus control / Bone mineral apposition rate, individual rats (Table 2) / Bone mineral apposition rate, group mean (Table 2): Example 1; for Bone mineral apposition rate, individual rats (Table 2) / Bone mineral apposition rate, group mean (Table 2): 300 nmoles/kg s.c. single dose; for Bone mineral apposition rate, group mean (Table 2): N=4, control 1.48
Procedure: Test peptides were administered by subcutaneous injection to the right gluteal region of the rats after being dissolved in a carrier buffer comprising PBS containing 0.1% heat inactivated BSA at pH 7.4. The dose was 300 nmoles/kg bodyweight in an injection volume of 400 μl.
Male Sprague-Dawley rats from Charles River Laboratory were used. The weight of the animals was approximately 350 g. They were housed in pairs in standard shoebox cages. Purina rat chow and tap water were provided ad libitum. The light/dark cycle was 12 hours, the temperature 22° C. and the humidity 50%. The animals were acclimatized for one week before initiating dosing.
Bone mineral apposition rate as measured for the distal metaphysis of the right femur was the parameter for the assessment of activity. Two doses of tetracycline hydrochloride (Sigma), 24 mg/kg body weight were administered I.M. in an injection volume of 800 μl to the left gluteus maximus muscle. The first dose was given immediately following the administration of the peptide, and the second dose 48 hours later. 24 hours after the second dose of tetracycline, the animals were sacrificed by carbon dioxide narcosis. The right femur was dissected clear of muscles and a 0.5 cm cross section of the bone 1 mm below the upper epiphyseal cartilage was taken and processed undecalcified for histological preparation of […]. Bone mineral apposition rate was measured in 15 randomly selected bone formation sites with two tetracycline labels in the trabecular bone. The arithmetic mean of these 15 sites was taken as the mean bone mineral apposition for the respective animals.
The dose of peptide was dissolved in 400 μl of buffer comprising of PBS with 0.1% of heat inactivated BSA and the method for the determination of bone mineral apposition rate was as described before.
Experimental design: Animals were grouped in four. All groups received a single dose of SEQ ID NO:2 (300 nmoles/kg) subcutaneously injected to the right gluteal region at Day 0 at approximately the same time within 15 minutes. Two doses tetracycline labeling at intervals of 48 hours was used to measure bone mineral apposition rate. The control group received buffer injection only.

[2] = Stability of peptides in solution, intact peptide remaining by HPLC peak height; type: physicochemical; conditions: pH 7.4
Procedure: Solvents for test peptides: Milli-Q water filtered through […] filter; resistance—18.2 Mega Ohms
Phosphate buffered saline: pH […] from Gibco (Cat. #100113-023)
20. mM sodium acetate buffer: pH 4.5 prepared with Milli-Q water and filtered through […] filter.
Peptides: The test peptides included those of SEQ ID NOs: 2, 3, 4 & 7.
Peptide preparation: Test peptides were dissolved in either PBS or sodium acetate buffer at a concentration of 0.2 mg per ml. The purity of the test peptides was greater than 95%.
Method for testing stability: Stability of the peptides was examined at pH7.4 and at room temperature, 4° C. and 37° C. The amount of intact peptide remaining over time was compared with the initial intact amount. The quantification of the amount of peptide was based on peak height in an HPLC profile.

Sprague-Dawley rats [3] = experiment: Bone mineral apposition rate after a single subcutaneous peptide injection, double tetracycline labelling, distal metaphysis of the right femur; type: in vivo, rat; set-up: unit not given here; conditions: Example 2, 300 nmoles/kg s.c., N=3, control 1.18

Substance | BONE MINERAL APPOSITION, individual rats (Table 6) (Sprague-Dawley rats [1]) | Effect on bone mineral apposition (Sprague-Dawley rats [1]) | BONE MINERAL APPOSITION, MEAN (Table 6) (Sprague-Dawley rats [1]) [µm/d] | Effect on bone mineral apposition rate versus control (Sprague-Dawley rats [1]; 300 nmoles/kg s.c.) | Bone mineral apposition rate, individual rats (Table 2) (Sprague-Dawley rats [1]) | Bone mineral apposition rate, group mean (Table 2) (Sprague-Dawley rats [1]) | other results
Ac-R T N E H T A D C K —NH2 (Ac-RTNEHTADCK-NH2) [SEQ ID NO: 8, monomer] | 2.27 µm/d and 1.78 µm/d and 2.15 µm/d and 2.01 µm/d | significantly stimulated | 2.05 |  |  |  | 
SEQ ID NO: 8, dimer: dimer form of the peptide with SEQ ID NO: 8 (chain 1 Ac-RTNEHTADCK-NH2; chain 2 Ac-RTNEHTADCK-NH2; not fully specified (bridges); cysteine pairing not given here; also: dimer, linkage not given here) | 1.39 µm/d and 1.43 µm/d and 1.42 µm/d and 1.36 µm/d | significantly inhibit | 1.4 |  |  |  | 
SEQ ID NO: 5: peptide of SEQ ID NO:7 with a carboxyamidomethyl residue modifying cysteine at the 9-position of the decamer (Ac-RTQEHTAEC(Cam)K-NH2) |  |  |  |  |  |  | Bone mineral apposition rate compared with the prior art peptide of SEQ ID NO: 7 (FIG. 5) (Sprague-Dawley rats [1]; Example 4, 300 nmoles/kg s.c.): significantly greater
Ac-R T Q E H T A E C K —NH2 (Ac-RTQEHTAECK-NH2) [SEQ ID NO: 7, monomer, prior art peptide] | 1.91 µm/d and 1.73 µm/d (2×) and 2.06 µm/d | significantly stimulated | 1.86 | significantly higher than the control group | 2.41 µm/d and 2.54 µm/d and 2.25 µm/d and 2.24 µm/d | 2.36 | Degradation in solution ([2]; 4° C. and room temperature, 6 months): totally degraded; Degradation in solution ([2]; 4° C. and room temperature, over three months): substantial degradation; Degradation in solution ([2]; 37° C., over 3 weeks): substantial degradation
K-T-Q-E-F-T-A-E-M-K [SEQ ID NO: 1] |  |  |  |  |  |  | Bone Mineral Apposition Rate, Mean rate (Table 4) (Sprague-Dawley rats [3]): 1.61
SEQ ID NO: 7, dimer: dimerized form of the peptide having SEQ ID NO:7, disulfide bonding between the cysteine residues (chain 1 Ac-RTQEHTAECK-NH2; chain 2 Ac-RTQEHTAECK-NH2; disulfide I:9-II:9; also: disulfide-linked dimer) | 1.29 µm/d and 1.51 µm/d (2×) | significantly inhibit | 1.43 | inhibitory effect | 1.28 µm/d and 1.41 µm/d and 1.5 µm/d and 1.38 µm/d | 1.39 | 
